Measured values reported in patent US8852664B2, “Neo-menthyl derivatives as flavor materials” (Symrise AG, priority 2008, dated 2014).

Test: Flavor profile determined by a trained panel of at least 5 testers
Assay type: in vivo
Experimental: The flavor profiles were determined by a trained panel of at least 5 testers by tasting against a 0.5% strength salt and a 0.5% strength sugar solution

[1] = trained panel of at least 5 testers, tasting against a 0.5% strength salt and a 0.5% strength sugar solution
[2] = table of further examples, prepared from racemic neo-menthol or neo-menthylamine and tasted

| Compound | Flavor Profile [1] | Flavor Profile [2] |
| --- | --- | --- |
| 1-((1S,2S,5R)-2-Isopropyl-5-methyl-cyclohexyl)-3-(2-methoxy-1-methyl-ethyl)-urea (5)/1-((1R,2R,5S)-2-isopropyl-5-methyl-cyclohexyl)-3-(2-methoxy-1-methyl-ethyl)-urea (6) [Synthesis Example 3] | long-lasting, salty, umami |  |
| 3-[3-((1S,2S,5R)-2-Isopropyl-5-methyl-cyclohexyl)-ureido]-butyric acid ethyl ester (7)/3-[3-((1R,2R,5S)-2-isopropyl-5-methyl-cyclohexyl)-ureido]-butyric acid ethyl ester (8) [Synthesis Example 4] | bitter, salty, metallic, umami |  |
| 4-((1S,2S,5R)-2-Isopropyl-5-methyl-cyclohexyloxycarbonylamino)-butyric acid ethyl ester (11)/4-((1R,2R,5S)-2-isopropyl-5-methyl-cyclohexyloxycarbonylamino)-butyric acid ethyl ester (12) [Synthesis Example 6] | bitter, salty, umami |  |
| CCNC(=O)O[C@H]1C[C@H](C)CC[C@H]1C(C)C (racemic) |  | cooling, umami, menthol note |
| CCOCCCNC(=O)O[C@H]1C[C@H](C)CC[C@H]1C(C)C (racemic) |  | rancid, musty, bitter, umami |
| CC(C)[C@@H]1CC[C@@H](C)C[C@@H]1NC(=O)NCCOCCO (racemic) |  | fatty, oily (fish), umami |
| CCOCCCNC(=O)N[C@H]1C[C@H](C)CC[C@H]1C(C)C (racemic) |  | fatty, tallow, dry- dusty, long-lasting, umami |
| CC(C)[C@@H]1CC[C@@H](C)C[C@@H]1NC(=O)NCCO (racemic) |  | alga, roasted note, umami, sweet |
| CC(C)[C@@H]1CC[C@@H](C)C[C@@H]1OC(=O)NCCOCCO (racemic) |  | fatty, tallow, oily, salty, metallic |
| CC(C)[C@@H]1CC[C@@H](C)C[C@@H]1OC(=O)NCC1CCCO1 (mixture of isomers) |  | bitter, long-lasting, umami |
| CC(C)[C@@H]1CC[C@@H](C)C[C@@H]1OC(=O)NC1CCCC1 (racemic) |  | bitter, salty |
| CC(C)[C@@H]1CC[C@@H](C)C[C@@H]1NC(=O)NCc1ccccc1 (racemic) |  | long-lasting, umami |
| CC(C)[C@@H]1CC[C@@H](C)C[C@@H]1NC(=O)NC1CCCC1 (racemic) |  | bitter, astringent, long-lasting, salty, metallic |
| CC(C)[C@@H]1CC[C@@H](C)C[C@@H]1NC(=O)NCC1CCCO1 (mixture of isomers) |  | salty, weakly umami |
| CC(C)[C@@H]1CC[C@@H](C)C[C@@H]1NC(=O)NCC1COC(C)(C)O1 (mixture of isomers) |  | sweet, umami |
| COCC(C)NC(=O)O[C@H]1C[C@H](C)CC[C@H]1C(C)C (mixture of isomers) |  | bitter, metallic, umami |
| CC(C)[C@@H]1CC[C@@H](C)C[C@@H]1OC(=O)NCc1ccc2c(c1)OCO2 (racemic) |  | bitter, umami |
| CC(C)[C@@H]1CC[C@@H](C)C[C@@H]1NC(=O)NC1CC1 (racemic) |  | bitter, long-lasting, salty, umami |
| CC(C)[C@@H]1CC[C@@H](C)C[C@@H]1NC(=O)NCc1ccc2c(c1)OCO2 (racemic) |  | salty, weakly umami |
| CC(C)[C@@H]1CC[C@@H](C)C[C@@H]1OC(=O)NC1CCCCC1 (racemic) |  | weakly sweet and weakly umami |
| CC(C)[C@@H]1CC[C@@H](C)C[C@@H]1OC(=O)NCC1COC(C)(C)O1 (mixture of isomers) |  | sweet, bitter, caramel, salty |
| CCOC(=O)CC(C)NC(=O)O[C@H]1C[C@H](C)CC[C@H]1C(C)C (mixture of isomers) |  | bitter, dry-dusty, tingling, slightly umami |
| CC(C)[C@@H]1CC[C@@H](C)C[C@@H]1OC(=O)NC1CC1 (racemic) |  | bitter, salty, umami |
